Experimental data: patent publication US20240368133A1, “Compounds for the Treatment of Pain, in Particular, Neuropathic Pain, and/or Other Diseases or Disorders that are Associated with AT2R and/or AT2R Mediated Signaling” (Confo Therapeutics N.V., priority 2021, published 2024)

What was measured:
human AT2R fused to Cb23 = human AT2R fused to Cb23 (Homo sapiens, UniProt P50052); assay: Radioligand binding assay, displacement of 125I-[Sar1, Ile8]-Angiotensin II, hAT2R Cb23; details: displacement of 125I-[Sar1, Ile8]-Angiotensin II, human AT2R fused to Cb23, HEK-293 cell membrane preparations; read-out: Binding affinity on hAT2R_Cb23 IC50
In short: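 Membranes from HEK-293 cells expressing human AT2R fused to Cb23 were incubated with 0.05 nM 125I-[Sar1, Ile8]-Angiotensin II in 100 μL buffer (50 mM Tris, 5 mM MgCl2, 1 mM EDTA, 0.1% BSA, pH 7.4) for one hour at 25° C. Ligands were tested as eight-point dose-response curves in duplicate, with C21 and Angiotensin II as references.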

human AT1R = human AT1R (Homo sapiens (Human), UniProt P30556); assay: Counterscreen radioligand binding assay, displacement of 125I-[Sar1, Ile8]-Angiotensin II, hAT1R WT; details: for inhibition at 1 µM / inhibition at 10 µM: 125I-[Sar1, Ile8]-Ang II, semi-quantitative score; for inhibition at 1 µM: compound at 1 μM, read-out: % Displaced radioligand at 1 μM; for inhibition at 10 µM: compound at 10 μM, read-out: % Displaced radioligand at 10 μM; for IC50: HEK-293 cell membranes, read-out: Binding affinity On hAT1R IC50
In short: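 Compounds displaced 0.05 nM 125I-[Sar1, Ile8]-Ang II from human AT1R in HEK-293 membranes (1 h, 25° C; Tris/MgCl2/EDTA/BSA buffer, pH 7.4). Readout was filtration and scintillation counting, with non-specific binding set by 10 μM [Sar1]-Ang II. Values are % displacement at 1 μM and […], or IC50 from eight-point four-parameter fits.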

Chain of human AT2R fused to Cb23 (P50052 whole entry, looked up, the tested form may be a part): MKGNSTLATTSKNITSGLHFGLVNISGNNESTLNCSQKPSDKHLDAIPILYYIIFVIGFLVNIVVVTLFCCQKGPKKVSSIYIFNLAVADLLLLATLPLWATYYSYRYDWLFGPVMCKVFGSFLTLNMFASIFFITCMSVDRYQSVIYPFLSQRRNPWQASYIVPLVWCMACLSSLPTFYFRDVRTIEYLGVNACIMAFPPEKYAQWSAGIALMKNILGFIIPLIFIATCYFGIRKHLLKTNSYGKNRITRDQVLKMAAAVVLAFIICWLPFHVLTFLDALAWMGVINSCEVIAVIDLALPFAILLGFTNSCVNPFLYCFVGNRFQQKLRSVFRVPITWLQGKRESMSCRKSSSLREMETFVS
Chain of human AT1R (P30556 whole entry): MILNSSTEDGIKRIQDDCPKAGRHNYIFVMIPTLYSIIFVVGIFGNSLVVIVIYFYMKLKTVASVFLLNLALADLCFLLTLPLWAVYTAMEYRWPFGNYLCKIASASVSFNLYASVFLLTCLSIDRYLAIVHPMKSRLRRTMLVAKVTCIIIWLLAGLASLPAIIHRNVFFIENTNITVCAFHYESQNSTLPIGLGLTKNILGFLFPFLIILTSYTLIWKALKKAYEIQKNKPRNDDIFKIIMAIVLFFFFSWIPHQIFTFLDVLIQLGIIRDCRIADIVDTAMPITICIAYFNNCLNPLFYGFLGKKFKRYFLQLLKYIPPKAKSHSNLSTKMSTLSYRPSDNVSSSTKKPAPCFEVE

| Structure (SMILES) | IC50 (human AT2R fused to Cb23) | inhibition at 1 µM (human AT1R) | inhibition at 10 µM (human AT1R) | IC50 (human AT1R) |
| --- | --- | --- | --- | --- |
| CC(C)Cc1ccc(-c2nn[nH]n2)c(N2CCN(Cc3ncco3)CC2)c1 [Compound A-98, 2-[[4-[5-isobutyl-2-(2H-tetrazol-5-yl)-phenyl]piperazin-1-yl]methyl]oxazole] | 5.69 µM | < 30% | < 30% |  |
| Cc1cc(CN2CCN(c3cc(CC(C)C)ccc3-c3nn[nH]n3)CC2)n(C)n1 [Compound A-104, 1-[(2,5-dimethyl-pyrazol-3-yl)meth-yl]-4-[5-isobutyl-2-(2H-tetrazol-5-yl)-phenyl]piperazine] | 6 µM | < 30% | < 30% |  |
| c1ccc2sc(CN3CCN(c4nc(C5CC5)ccc4-c4nn[nH]n4)CC3)nc2c1 [Compound A-145, 2-[[4-[6-cycloprop-yl-3-(2H-tetrazol-5-yl)-2-pyridyl]piper-azin-1-yl]methyl]-1,3-benzothiazole] | 8.22 µM | < 30% | < 30% |  |
| COC1CC(Nc2ccc(-c3nn[nH]n3)c(N3CCN(Cc4nc5ccccc5s4)CC3)c2)C1 (stereo not drawn) [Compound A-68, 3-[4-(1,3-benzo-thiazol-2-ylmethyl)-piperazin-1-yl]-N-(3-methoxycyclo-butyl)-4-(2H-tetrazol-5-yl)aniline] | 8.5 µM | < 30% | < 30% |  |
| CC(C)COc1ccc(-c2nn[nH]n2)c(N2CCN(Cc3nc4ccccc4s3)CC2)c1 [Compound A-53, 2-[[4-[5-isobutoxy-2-(2H-tetrazol-5-yl)phenyl]piperazin-1-yl]methyl]-1,3-benzothiazole] | 7.6 µM | < 30% | < 30% | 45.6 µM |
| CC(C)Cc1cc(N2CCN(Cc3nc4ccccc4c(=O)[nH]3)CC2)c(-c2nn[nH]n2)cc1F [Compound A-153, 2-[[4-[4-fluoro-5-isobutyl-2-(2H-tetrazol-5-yl)phen-yl]piperazin-1-yl]-methyl]-3H-quin-azolin-4-one] | 8.42 µM | < 30% | < 30% |  |
| CC(C)Cc1cc(F)c(-c2nn[nH]n2)c(N2CC3CCC(C2)N3Cc2cccnn2)c1 [Compound A-190, 3-[3-fluoro-5-isobutyl-2-(2H-tetrazol-5-yl)phen-yl]-8-(pyridazin-3-ylmethyl)-3,8-diaza-bicyclo[3.2.1]octane] | 1.35 µM | < 30% | < 30% |  |
| Cc1cc(CN2CCN(c3cc(CC(C)C)ccc3-c3nn[nH]n3)CC2)on1 [Compound A-89, 5-[[4-[5-isobutyl-2-(2H-tetrazol-5-yl)-phenyl]piperazin-1-yl]methyl]-3-methyl-isoxazole] | 9.78 µM | < 30% | < 30% |  |
| CCCOc1ccc(C(=O)NS(=O)(=O)CC)c(N2CCN(Cc3nc4ccccc4s3)CC2)c1 [Compound A-42, 2-[4-(1,3-benzothiazol-2-ylmethyl)piperazin-1-yl]-N-ethylsulfonyl-4-propoxy-benzamide] | 17.7 µM | < 30% | 30 to 50% | 26.3 µM |
| c1ccc(N2CCC(Cc3nc4ccccc4s3)CC2)c(-c2nn[nH]n2)c1 [Compound A-06, 2-[[1-[2-(2H-tetrazol-5-yl)phen-yl]-4-piperidyl]-methyl]-1,3-benzo-thiazole] | 16.5 µM | < 30% | 30 to 50% | 25.4 µM |
| Cc1ccc(CN2CCN(c3cc(CC(C)C)ccc3-c3nn[nH]n3)CC2)nn1 [Compound A-113] | 7.07 µM | < 30% | < 30% |  |

Further molecules by falling IC50 (human AT2R fused to Cb23), results first:

| IC50 (human AT2R fused to Cb23) | inhibition at 1 µM (human AT1R) | inhibition at 10 µM (human AT1R) | IC50 (human AT1R) | Structure (SMILES) |
| --- | --- | --- | --- | --- |
| 4.42 µM | < 30% | < 30% |  | c1ccc2sc(CN3CCN(c4cc(OC5CC5)ccc4-c4nn[nH]n4)CC3)nc2c1 [Compound A-52, 2-[[4-[5-(cyclopropoxy)-2-(2H-tetrazol-5-yl)phenyl]piperazin-1-yl]methyl]-1,3-benzothiazole] |
| 3.52 µM | < 30% | < 30% |  | CCNc1cc(-c2nn[nH]n2)c(N2CCN(Cc3cccnn3)CC2)cc1CC(C)C [Compound A-172, N-ethyl-2-isobutyl-4-[4-(pyridazin-3-ylmethyl)piperazin-1-yl]-5-(2H-tetrazol-5-yl)aniline] |
| 2.74 µM | < 30% | < 30% |  | Cc1cnc(CN2CCN(c3cc(CC(C)C)cnc3-c3nn[nH]n3)CC2)s1 [Compound A-221, 2-((4-(5-isobutyl-2-(2H-tetrazol-5-yl)pyridin-3-yl)piperazin-1-yl)methyl)-5-methylthiazole] |
| 2.4 µM | < 30% | 30 to 50% | 13.6 µM | CCOc1ccc(C(=O)NS(=O)(=O)CC)c(N2CCN(Cc3nc4ccccc4s3)CC2)c1 [Compound A-38, 2-[4-(1,3-benzothiazol-2-ylmethyl)piperazin-1-yl]-4-ethoxy-N-ethylsulfonyl-benzamide] |
| 2.02 µM | < 30% | < 30% |  | CC(C)Cc1ccc(-c2nn[nH]n2)c(C2CCN(Cc3cccnn3)CC2)c1 [Compound A-234, 3-[[4-[5-isobutyl-2-(2H-tetrazol-5-yl)-phenyl]-1-piperid-yl]methyl]pyrid-azine] |
| 1.98 µM | < 30% | < 30% |  | COc1ccc(CN2CCN(c3cc(CC(C)C)ccc3-c3nn[nH]n3)CC2)nn1 [Compound A-115, 3-[[4-[5-isobutyl-2-(2H-tetrazol-5-yl)-phenyl]piperazin-1-yl]methyl]-6-methoxy-pyridazine] |
| 1.92 µM | < 30% | < 30% |  | COc1ccnc(CN2CCN(c3cc(CC(C)C)cc(F)c3-c3nn[nH]n3)CC2)c1C [Compound A-208, 1-[3-fluoro-5-isobutyl-2-(2H-tetrazol-5-yl)phen-yl]-4-[(4-methoxy-3-methyl-2-pyrid-yl)methyl]piper-azine] |
| 1.8 µM | < 30% | < 30% | 61.2 µM | Cc1ccc2nc(CN3CCN(c4cc(CC(C)C)ccc4-c4nn[nH]n4)CC3)cc(=O)n2c1 [Compound A-70, 2-[[4-[5-isobutyl-2-(2H-tetrazol-5-yl)-phenyl]piperazin-1-yl]methyl]-7-methyl-pyrido[1,2-a]pyrimidin-4-one] |
| 1.47 µM | < 30% | < 30% |  | CC(C)Cc1cnc(-c2nn[nH]n2)c(N2CCN(Cc3nc4ccccc4s3)CC2)c1 [Compound A-147, 2-[[4-[5-isobutyl-2-(2H-tetrazol-5-yl)-3-pyridyl]piperazin-1-yl]methyl]-1,3-benzothiazole] |
| 1.19 µM | < 30% | < 30% |  | CC(C)Cc1cc(N2CCN(Cc3nc4ccccc4s3)CC2)c(-c2nn[nH]n2)cc1F [Compound A-133, 2-[[4-[4-fluoro-5-isobutyl-2-(2H-tetrazol-5-yl)phen-yl]piperazin-1-yl]-methyl]-1,3-benzo-thiazole] |
| 0.602 µM | < 30% | < 30% | 31.4 µM | CCS(=O)(=O)NC(=O)c1ccc(C2CC2)cc1N1CCN(Cc2nc3ccccc3s2)CC1 [Compound A-35, 2-[4-(1,3-benzothiazol-2-ylmethyl)piperazin-1-yl]-4-cyclopropyl-N-ethylsulfonyl-benzamide] |
| 0.537 µM | < 30% | < 30% |  | CC(C)Cc1cc(F)c(-c2nn[nH]n2)c(N2CCN(Cc3ccc(F)cn3)CC2)c1 [Compound A-195, 1-[3-fluoro-5-isobutyl-2-(2H-tetrazol-5-yl)phen-yl]-4-[(5-fluoro-2-pyridyl)methyl]-piperazine] |
| 0.434 µM | < 30% | < 30% |  | CC(C)Cc1ccc(-c2nn[nH]n2)c(N2CCN(C(C)c3cccnn3)CC2)c1 (stereo not drawn) [Compound A-212, 3-[1-[4-[5-isobutyl-2-(2H-tetrazol-5-yl)-phenyl]piperazin-1-yl]ethyl]pyrid-azine] |
| 0.355 µM | < 30% | < 30% |  | CC(C)Cc1cc(F)c(-c2nn[nH]n2)c(N2CCN(Cc3nc4ccccc4s3)CC2)c1 [Compound A-132, 2-[[4-[3-fluoro-5-isobutyl-2-(2H-tetrazol-5-yl)phen-yl]piperazin-1-yl]-methyl]-1,3-benzo-thiazole] |
| 0.222 µM | < 30% | < 30% |  | CC(C)Cc1ccc(-c2nn[nH]n2)c(N2CCN(Cc3cnc4ccccn34)CC2)c1 [Compound A-80, 3-[[4-[5-isobutyl-2-(2H-tetrazol-5-yl)-phenyl]piperazin-1-yl]methyl]imid-azo[1,2-a]pyridine] |
| 0.122 µM | < 30% | < 30% |  | CC(C)Cc1cc(F)c(-c2nn[nH]n2)c(N2CCN(C(C)c3ccccn3)[C@@H](C)C2)c1 (stereo partly drawn) [Compound A-218, (2S)-4-[3-fluoro-5-isobutyl-2-(2H-tetrazol-5-yl)phenyl]-2-methyl-1-[1-(2-pyridyl)ethyl]piperazine] |
